For one assay, the target named is Cytochrome P450 2C9 (Homo sapiens, UniProt P11712). Kind of assay: Inhibition of CYP2C9 (unknown origin). The assay is classed as ADME.
Another assay concerns the target T1, Cytochrome P450 2C8 (Homo sapiens, UniProt P10632).
T1 sequence (P10632 whole entry): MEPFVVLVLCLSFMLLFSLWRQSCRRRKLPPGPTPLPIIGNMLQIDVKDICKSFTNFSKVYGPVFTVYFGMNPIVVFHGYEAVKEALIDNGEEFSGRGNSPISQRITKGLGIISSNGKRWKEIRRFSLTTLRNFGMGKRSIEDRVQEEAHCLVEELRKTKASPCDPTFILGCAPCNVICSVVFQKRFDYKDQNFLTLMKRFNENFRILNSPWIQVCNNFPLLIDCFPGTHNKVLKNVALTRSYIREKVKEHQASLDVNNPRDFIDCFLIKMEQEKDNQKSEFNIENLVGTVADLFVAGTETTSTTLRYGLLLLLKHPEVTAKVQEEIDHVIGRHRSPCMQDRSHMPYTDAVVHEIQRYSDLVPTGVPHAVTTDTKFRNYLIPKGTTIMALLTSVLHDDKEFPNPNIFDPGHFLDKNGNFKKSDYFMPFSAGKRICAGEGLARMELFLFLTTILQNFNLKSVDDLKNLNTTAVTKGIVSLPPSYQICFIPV
As to the kind of experiment: Inhibition of CYP2C8 (unknown origin). The class given is ADME.

Assay [1] has as its target T2, Mineralocorticoid receptor (Homo sapiens) (UniProt P08235).
T2 sequence (whole entry): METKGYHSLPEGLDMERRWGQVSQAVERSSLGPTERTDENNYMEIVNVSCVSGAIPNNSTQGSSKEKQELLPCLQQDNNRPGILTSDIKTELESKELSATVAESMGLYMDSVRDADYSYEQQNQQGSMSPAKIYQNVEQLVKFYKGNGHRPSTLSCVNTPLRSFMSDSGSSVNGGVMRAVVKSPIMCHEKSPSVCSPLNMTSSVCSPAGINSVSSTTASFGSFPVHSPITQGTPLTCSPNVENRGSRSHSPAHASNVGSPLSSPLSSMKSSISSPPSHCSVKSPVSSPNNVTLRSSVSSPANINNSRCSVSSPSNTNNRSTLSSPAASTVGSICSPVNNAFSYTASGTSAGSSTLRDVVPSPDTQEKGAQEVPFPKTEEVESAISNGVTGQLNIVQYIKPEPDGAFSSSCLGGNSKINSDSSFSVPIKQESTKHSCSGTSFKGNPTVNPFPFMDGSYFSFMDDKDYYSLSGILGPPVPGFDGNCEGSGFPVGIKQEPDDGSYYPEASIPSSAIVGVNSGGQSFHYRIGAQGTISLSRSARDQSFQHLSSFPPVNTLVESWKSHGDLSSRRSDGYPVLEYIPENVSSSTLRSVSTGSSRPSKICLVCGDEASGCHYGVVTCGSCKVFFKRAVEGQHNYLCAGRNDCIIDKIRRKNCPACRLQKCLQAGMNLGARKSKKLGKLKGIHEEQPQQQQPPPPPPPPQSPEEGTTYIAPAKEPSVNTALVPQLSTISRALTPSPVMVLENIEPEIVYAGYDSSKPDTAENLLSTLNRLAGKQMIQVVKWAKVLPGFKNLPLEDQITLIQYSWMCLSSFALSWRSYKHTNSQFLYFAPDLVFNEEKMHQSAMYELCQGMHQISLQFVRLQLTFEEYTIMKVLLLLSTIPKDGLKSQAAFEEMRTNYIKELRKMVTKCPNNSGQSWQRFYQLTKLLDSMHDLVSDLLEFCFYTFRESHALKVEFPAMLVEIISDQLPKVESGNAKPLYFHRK
As to the kind of experiment: Agonist activity at MR (unknown origin) by transcriptional reporter assay.

Assay [2] deals with T3, Glucocorticoid receptor (Homo sapiens) (UniProt P04150).
T3 sequence (whole entry): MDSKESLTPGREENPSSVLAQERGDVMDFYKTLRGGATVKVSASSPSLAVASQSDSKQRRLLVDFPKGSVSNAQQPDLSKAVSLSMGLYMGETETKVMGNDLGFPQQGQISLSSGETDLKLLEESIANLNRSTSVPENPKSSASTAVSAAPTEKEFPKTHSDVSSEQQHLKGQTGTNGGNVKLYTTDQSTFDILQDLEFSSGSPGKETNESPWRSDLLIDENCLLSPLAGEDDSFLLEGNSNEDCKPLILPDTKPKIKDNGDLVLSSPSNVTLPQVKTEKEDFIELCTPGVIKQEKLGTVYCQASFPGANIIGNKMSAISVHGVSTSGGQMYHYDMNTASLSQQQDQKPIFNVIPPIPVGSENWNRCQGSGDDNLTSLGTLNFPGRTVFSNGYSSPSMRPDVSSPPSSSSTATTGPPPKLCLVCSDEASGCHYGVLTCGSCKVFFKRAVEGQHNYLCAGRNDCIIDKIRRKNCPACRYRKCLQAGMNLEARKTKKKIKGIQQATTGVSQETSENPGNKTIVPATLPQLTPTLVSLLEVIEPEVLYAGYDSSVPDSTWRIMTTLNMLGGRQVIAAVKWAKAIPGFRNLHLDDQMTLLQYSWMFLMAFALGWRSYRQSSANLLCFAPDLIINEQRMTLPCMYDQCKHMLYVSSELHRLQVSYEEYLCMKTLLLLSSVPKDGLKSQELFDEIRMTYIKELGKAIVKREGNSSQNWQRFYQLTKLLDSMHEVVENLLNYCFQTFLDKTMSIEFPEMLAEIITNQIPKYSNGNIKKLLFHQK
Kind of assay: Agonist activity at GR (unknown origin) by transcriptional reporter assay.

The structures appear in SMILES notation. The source made the active and inactive calls. No cut-off for these calls is given here.

Sequence of Cytochrome P450 2C9 (P11712 whole entry): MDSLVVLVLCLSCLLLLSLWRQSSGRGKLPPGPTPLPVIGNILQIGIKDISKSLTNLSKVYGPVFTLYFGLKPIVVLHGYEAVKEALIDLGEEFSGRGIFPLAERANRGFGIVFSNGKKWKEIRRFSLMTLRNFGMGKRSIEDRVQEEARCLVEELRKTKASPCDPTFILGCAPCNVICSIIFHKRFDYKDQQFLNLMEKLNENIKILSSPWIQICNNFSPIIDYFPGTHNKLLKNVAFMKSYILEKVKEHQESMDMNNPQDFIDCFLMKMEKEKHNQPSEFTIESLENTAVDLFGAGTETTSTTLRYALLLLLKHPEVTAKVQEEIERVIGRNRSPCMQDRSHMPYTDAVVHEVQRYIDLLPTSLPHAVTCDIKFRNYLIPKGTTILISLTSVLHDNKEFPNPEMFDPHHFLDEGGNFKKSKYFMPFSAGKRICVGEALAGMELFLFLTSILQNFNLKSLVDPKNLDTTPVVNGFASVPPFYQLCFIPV

As to `CC1=C(c2cccc(O)c2)[C@H](c2ccc(OCCN3CC(CF)C3)cc2)Oc2ccc(O)cc21`, the figures for the half-inhibitory concentration (IC50) against Cytochrome P450 2C9 and against Cytochrome P450 2C8 were 3.2 µM and 3 µM, respectively. In addition, the outcome in assay [1] and in assay [2] was inactive.
